Results taken from US10920230B2, “Methylotrophs for aquaculture and animal feed” (KnipBio, Inc., priority 2013, dated 2021).
≈ marks a conversion by molar mass, not a printed value.

Legend:
[1] = tested on: wild-type B. fungorum LB400; experiment: Natural chloramphenicol resistance seen during selection of transconjugants; type: cell-based, Burkholderia fungorum; settings: citrate medium
Experimental: A ΔflhA::kan mutant of B. fungorum LB400 was generated by introducing pCM363 by conjugation. […] One tetracycline-sensitive strain representing a ΔfIhA::kan mutant, CM363K.1, was chosen for further study. The plasmid pCM157 was used as described above to produce the ΔflhA strain CM363.1. Analytical PCR was performed with wild-type B. fungorum LB400, CM363K.1, and CM363.1 for confirmation (data not shown).

Structure (SMILES) | MIC (ΔflhA strain CM363.1) [µM] | naturally resistant below [1] [µg/mL]
C=O [formaldehyde] | 100 (≈ 3 µg/mL) | 
O=C(N[C@H](CO)[C@H](O)c1ccc([N+](=O)[O-])cc1)C(Cl)Cl [chloramphenicol] |  | 10 to 20
